The assay has as its system COLO320DM cells. As to the kind of experiment: COLO320DM proliferation assay (CellTiter-Glo). It counts as cell-based, human. Conditions: read-out: COLO320DM Proliferation Abs IC50. Here is the method:
COLO320DM proliferation assay IC50: In some embodiments, inhibition of cell proliferation by provided technologies were assessed using cell lines related to or from certain conditions, disorders or diseases. In some embodiments, cell proliferation was assessed in COLO320DM cells. In some embodiments, assessment was performed using the following procedure: On Day 1, cultured COLO320DM cells in a T75 flask were trypsinized in 3 mL of 0.250% trypsin/EDTA for 5 min and quenched with 10 mL RPMI-1640+4% HI FBS assay media. The cells were spun down at 1200 rpm for 5 min, the cell pellet collected and re-suspended at 5000 cells/mL in assay media. Using a Combi liquid handler, cells were dispensed (50 uL, 250 cells/well) into three 384 well plates. Plates were incubated at 37° C., 5% CO2 for 18-22 h. On day 2, compounds were added. A liquid handling system was used to prepare the compound dilution and dispense compound into assay plates. The compounds were serially diluted 1/2 in 90% DMSO to create a 7 point dose curve. From compound plate, 100 nL of compound were dispensed directly into wells of the assay plates to create a dose curve starting at 20 uM and ending at 313 nM. Assay plates were incubated at 37° C., 5% CO2 for 96 h. On day 6, assay plates were removed from the incubator and allowed to sit at room temperature for 30 min. Using a liquid handler, 20 uL of CellTiter Glo reagent was added to each well. The assay plates were shaken for 2 min and allowed to sit on the bench for 10-15 minutes. The assay plates were read using the CellTiter Glo protocol on a GloMax microplate reader, and the data analyzed using GraphPad Prism. Activities of various agents, including various stapled peptides in Table E2, were confirmed.
In some embodiments, an assessment was performed as follows. On day 0, cells were seeded in cell culture media (RPMI1640, 4% FBS) in a 96-well plate at desired density, typically at 1000 cells/well. On day 1, 10 mM agent stock solution (in DMSO) was first serially diluted into DMSO at 1:2 ratio, followed by diluting with cell culture media at two times of the final concentrations. Finally, agent-containing media were introduced to cell culture wells already having the same volume of cell culture media. Cells were incubated with agents for desired days before lysed for CellTiter-Glo® Luminescent Cell Viability Assay according to the manufacture instruction (Promega, G7570). Luminescent signal was obtained from a microplate reader (GloMax, Promega). Cell viability data was expressed as % relative to DMSO control wells.
Proliferation Assay. In some embodiments, various proliferation assays are utilized to characterize or assess provided technologies. In some embodiments, on day 0, cells were seeded in cell culture media in a 96-well plate at desired density, typically at 1000 cells/well. On day 1, 10 mM compound stock solution was first serially diluted into DMSO, followed by diluting with cell culture media at two times of the final concentrations. Finally, compound-containing media were introduced to cell culture wells already having the same volume of cell culture media. Cells were incubated with compounds for desired days before lysed for CTG according to the manufacture instruction (G7570, Promega). Luminescent signal was obtained from a microplate reader (GloMax, Promega).
On the technique in general: ATP-based viability assays read luminescence as a measure of living cells.

pIC50: −log10 of the molar value.

As to “Ac-PL3-Asp-Chg-B5-Asp-3COOHF-Aib-Ala-Phe-Lys*3-PyrS2-2ClF-34ClF-GlnR*3-NH2 [I-1505]”, the pIC50 is no less than 5.00.

On to “Ac-PL3-Asp-Chg-B5-Asp-3COOHF-Aib-Ala-Phe-Lys*3-PyrS2-2ClF-BztA-GlnR*3-NH2 [I-1530]”, for which the pIC50 was no less than 5.00.

For the substance “Ac-PL3-Asp-Chg-B5-Asp-3COOHF-Aib-Ala-Phe-Lys*3-PyrS2-3Thi-34ClF-GlnR*3-NH2 [I-1037]”, the pIC50 is no less than 5.00.

Regarding “Ac-PL3-Asp-Chg-B5-Asp-3COOHF-Aib-Ala-Phe-Lys*3-PyrS2-Phe-34ClF-GlnR*3-NH2 [I-1048]”, the pIC50 is no less than 5.00.

“Ac-PL3-Asp-Chg-B5-Asp-3COOHF-Ala-Ala-Phe-Lys*3-PyrS2-2ClF-34ClF-GlnR*3-NH2 [I-1506]”: the pIC50 is no less than 5.00.

For the substance “Ac-PL3-Asp-Chg-B5-Asp-3COOHF-Ala-Ala-Phe-Lys*3-PyrS2-2ClF-BztA-GlnR*3-NH2 [I-1531]”, the pIC50 was no less than 5.00.

Consider “Ac-PL3-Asp-Chg-B5-Asp-3COOHF-CyLeu-Ala-Phe-Lys*3-PyrS2-3Thi-34ClF-GlnR*3-NH2 [I-1044]”, for which the pIC50 is no less than 5.00.

Consider “Ac-PL3-Asp-Chg-B5-Asp-3COOHF-CyLeu-Ala-Phe-Lys*3-PyrS2-Phe-34ClF-GlnR*3-NH2 [I-1056]”, for which the pIC50 is no less than 5.00.

As for “Ac-PL3-Asp-DipA-B5-Asn-3COOHF-nLeu-Ala-Phe-Lys*3-PyrS2-3Thi-34ClF-GlnR*3-NH2 [I-1638]”, the pIC50 was no less than 5.00.

As to “Ac-PL3-Asp-DipA-B5-Asp-3COOHF-Aib-Ala-Phe-Lys*3-PyrS2-3Thi-34ClF-GlnR*3-NH2 [I-1108]”, the pIC50 is no less than 5.00.

For “Ac-PL3-Asp-DipA-B5-Asp-3COOHF-Ala-Ala-Phe-Lys*3-PyrS2-3Thi-34ClF-GlnR*3-Ala-Ala-Ala-[mPEG8]-Lys [I-1705]”, the pIC50 is no less than 5.00.

For “Ac-PL3-Asp-DipA-B5-Asp-3COOHF-Ala-Ala-Phe-Lys*3-PyrS2-3Thi-34ClF-GlnR*3-Ala-Ala-Ala-[mPEG37]-Lys [I-1706]”, the pIC50 was no less than 5.00.

Take “Ac-PL3-Asp-DipA-B5-Asp-3COOHF-Ala-Ala-Phe-Lys*3-PyrS2-3Thi-34ClF-GlnR*3-Ala-Ala-[Ac-PEG8]-Lys-NH2-NH2 [I-1788]”: the pIC50 is no less than 5.00.

For the substance “Ac-PL3-Asp-DipA-B5-Asp-3COOHF-Ala-Ala-Phe-Lys*3-PyrS2-3Thi-34ClF-GlnR*3-Ala-Ala-[Ac-dPEG2]-Lys-NH2-NH2 [I-1787]”, the pIC50 was no less than 5.00.

Regarding “Ac-PL3-Asp-DipA-B5-Asp-3COOHF-Ala-Ala-Phe-Lys*3-PyrS2-3Thi-34ClF-GlnR*3-Ala-Ala-[C18-PEG8]-Lys-NH2-NH2 [I-1792]”, the pIC50 is no less than 5.00.

As for “Ac-PL3-Asp-DipA-B5-Asp-3COOHF-Ala-Ala-Phe-Lys*3-PyrS2-3Thi-34ClF-GlnR*3-Ala-Ala-[C18-dPEG2]-Lys-NH2-NH2 [I-1791]”, the pIC50 was no less than 5.00.

On to “Ac-PL3-Asp-DipA-B5-Asp-3COOHF-Ala-Ala-Phe-Lys*3-PyrS2-3Thi-34ClF-GlnR*3-Ala-Ala-[Oct-PEG8]-Lys-NH2-NH2 [I-1790]”, for which the pIC50 is no less than 5.00.

With “Ac-PL3-Asp-DipA-B5-Asp-3COOHF-Ala-Ala-Phe-Lys*3-PyrS2-3Thi-34ClF-GlnR*3-Ala-Ala-[Oct-dPEG2]-Lys-NH2-NH2 [I-1789]”, the pIC50 was no less than 5.00.

Consider “Ac-PL3-Asp-DipA-B5-Asp-3COOHF-Ala-Ala-Phe-Lys*3-PyrS2-3Thi-34ClF-GlnR*3-Ala-Ala-[mPEG8]-Lys-NH2 [I-1703]”, for which the pIC50 is no less than 5.00.

Turning to “Ac-PL3-Asp-DipA-B5-Asp-3COOHF-Ala-Ala-Phe-Lys*3-PyrS2-3Thi-34ClF-GlnR*3-Ala-Ala-[mPEG37]-Lys-NH2 [I-1704]”, the pIC50 was no less than 5.00.

For “Ac-PL3-Asp-DipA-B5-Asp-3COOHF-Ala-Ala-Phe-Lys*3-PyrS2-3Thi-34ClF-GlnR*3-NH2 [I-1111]”, the pIC50 is no less than 5.00.

Take “Ac-PL3-Asp-DipA-B5-Asp-3COOHF-Ala-Ala-Phe-Lys*3-PyrS2-3Thi-34ClF-GlnR*3-[mPEG8]-Lys-NH2 [I-1701]”: the pIC50 was no less than 5.00.

Regarding “Ac-PL3-Asp-DipA-B5-Asp-3COOHF-Ala-Ala-Phe-Lys*3-PyrS2-3Thi-34ClF-GlnR*3-[mPEG37]-Lys-NH2 [I-1702]”, the pIC50 is no less than 5.00.

“Ac-PL3-Asp-DipA-B5-Asp-3COOHF-Ala-Ala-Phe-Lys*3-PyrS2-3Thi-BztA-GlnR*3-Ala-NH2 [I-982]”: the pIC50 is no less than 5.00.

Regarding “Ac-PL3-Asp-DipA-B5-Asp-3COOHF-CyLeu-Ala-Phe-Lys*3-PyrS2-2F3MeF-34ClF-GlnR*3-Leu-NH2 [I-1769]”, the pIC50 was no less than 5.00.

“Ac-PL3-Asp-DipA-B5-Asp-3COOHF-CyLeu-Ala-Phe-Lys*3-PyrS2-2F3MeF-34ClF-GlnR*3-Val-NH2 [I-1773]”: the pIC50 was no less than 5.00.

Consider “Ac-PL3-Asp-DipA-B5-Asp-3COOHF-CyLeu-Ala-Phe-Lys*3-PyrS2-2F3MeF-BztA-GlnR*3-Leu-NH2 [I-1770]”, for which the pIC50 was no less than 5.00.

For “Ac-PL3-Asp-DipA-B5-Asp-3COOHF-CyLeu-Ala-Phe-Lys*3-PyrS2-2F3MeF-BztA-GlnR*3-NH2 [I-1766]”, the pIC50 was less than 4.70.

Turning to “Ac-PL3-Asp-DipA-B5-Asp-3COOHF-CyLeu-Ala-Phe-Lys*3-PyrS2-2F3MeF-BztA-GlnR*3-Phe-NH2 [I-1777]”, the pIC50 was no less than 5.00.

Turning to “Ac-PL3-Asp-DipA-B5-Asp-3COOHF-CyLeu-Ala-Phe-Lys*3-PyrS2-2F3MeF-BztA-GlnR*3-Ser-NH2 [I-1772]”, the pIC50 was no less than 5.00.

Consider “Ac-PL3-Asp-DipA-B5-Asp-3COOHF-CyLeu-Ala-Phe-Lys*3-PyrS2-2F3MeF-BztA-GlnR*3-Val-NH2 [I-1774]”, for which the pIC50 is no less than 5.00.

Regarding “Ac-PL3-Asp-DipA-B5-Asp-3COOHF-CyLeu-Ala-Phe-Lys*3-PyrS2-3Thi-34ClF-GlnR*3-Ala-NH2 [I-1118]”, the pIC50 was no less than 5.00.

Take “Ac-PL3-Asp-DipA-B5-Asp-3COOHF-CyLeu-Ala-Phe-Lys*3-PyrS2-3Thi-34ClF-GlnR*3-NH2 [I-1117]”: the pIC50 was no less than 5.00.

Take “Ac-PL3-Asp-DipA-B5-Asp-3COOHF-Val-Ala-Phe-Lys*3-PyrS2-3Thi-BztA-GlnR*3-Ala-NH2 [I-984]”: the pIC50 is no less than 5.00.

With “Ac-PL3-Asp-DipA-B5-Asp-3COOHF-Val-Ala-Phe-Lys*3-PyrS2-Phe-BztA-GlnR*3-dPro-NH2 [I-1855]”, the pIC50 was no less than 5.00.

“Ac-PL3-Asp-DipA-B5-Asp-3COOHF-nLeu-Ala-Phe-Lys*3-PyrS2-3Thi-BztA-GlnR*3-Ala-NH2 [I-986]”: the pIC50 was no less than 5.00.

As for “Ac-PL3-Asp-DipA-B5-aThr-3COOHF-nLeu-Ala-Phe-Lys*3-PyrS2-3Thi-34ClF-GlnR*3-NH2 [I-1639]”, the pIC50 was no less than 5.00.

Take “Ac-PL3-Asp-Ile-B5-Asp-3COOHF-Aib-Ala-Phe-1MeK*3-PyrS2-Phe-34ClF-GlnR*3-NH2 [I-1369]”: the pIC50 was no less than 5.00.

In the case of “Ac-PL3-Asp-Ile-B5-Asp-3COOHF-Aib-Ala-Phe-1MeK*3-PyrS2-Phe-34ClF-hGlnR*3-NH2 [I-1373]”, the pIC50 was less than 4.70.

Consider “Ac-PL3-Asp-Ile-B5-Asp-3COOHF-Aib-Ala-Phe-GlnR*3-PyrS2-Phe-34ClF-1MeK*3-NH2 [I-1370]”, for which the pIC50 is no less than 5.00.

Take “Ac-PL3-Asp-Ile-B5-Asp-3COOHF-Aib-Ala-Phe-GlnR*3-PyrS2-Phe-34ClF-AsnEDA*3-NH2 [I-1376]”: the pIC50 was no less than 5.00.

As to “Ac-PL3-Asp-Ile-B5-Asp-3COOHF-Aib-Ala-Phe-GlnR*3-PyrS2-Phe-34ClF-Lys*3-NH2 [I-1367]”, the pIC50 is no less than 5.00.

For “Ac-PL3-Asp-Ile-B5-Asp-3COOHF-Aib-Ala-Phe-Lys*3-PyrS2-2FF-34ClF-GlnR*3-NH2 [I-1539]”, the pIC50 was no less than 5.00.

As for “Ac-PL3-Asp-Ile-B5-Asp-3COOHF-Aib-Ala-Phe-Lys*3-PyrS2-2MeF-34ClF-GlnR*3-NH2 [I-1508]”, the pIC50 was no less than 5.00.

For the substance “Ac-PL3-Asp-Ile-B5-Asp-3COOHF-Aib-Ala-Phe-Lys*3-PyrS2-Phe-3BrF-GlnR*3-NH2 [I-1604]”, the pIC50 is no less than 5.00.

In the case of “Ac-PL3-Asp-Ile-B5-Asp-3COOHF-Aib-Ala-Phe-Lys*3-PyrS2-Phe-3ClF-GlnR*3-NH2 [I-1598]”, the pIC50 is no less than 5.00.

For the substance “Ac-PL3-Asp-Ile-B5-Asp-3COOHF-Aib-Ala-Phe-Lys*3-PyrS2-Phe-34ClF-hGlnR*3-NH2 [I-1371]”, the pIC50 was less than 4.70.

For the origin of these results see US20240360179A1, “STAPLED PEPTIDES AND METHODS THEREOF” (FOG PHARMACEUTICALS, INC., priority 2021, published 2024).
